For 53 compounds, Ki results are on record in ChEMBL document CHEMBL1156733, “Structure-activity relationship studies on a series of piperazinebenzylalcohols and their ketone and amine analogs as melanocortin-4 receptor ligands” (Bioorg Med Chem Lett, 2008).

Where only a bound is given, the exact number is not on record here.

The target of this test is Melanocortin receptor 4 (Homo sapiens, UniProt P32245).
Chain of Melanocortin receptor 4 (P32245 whole entry): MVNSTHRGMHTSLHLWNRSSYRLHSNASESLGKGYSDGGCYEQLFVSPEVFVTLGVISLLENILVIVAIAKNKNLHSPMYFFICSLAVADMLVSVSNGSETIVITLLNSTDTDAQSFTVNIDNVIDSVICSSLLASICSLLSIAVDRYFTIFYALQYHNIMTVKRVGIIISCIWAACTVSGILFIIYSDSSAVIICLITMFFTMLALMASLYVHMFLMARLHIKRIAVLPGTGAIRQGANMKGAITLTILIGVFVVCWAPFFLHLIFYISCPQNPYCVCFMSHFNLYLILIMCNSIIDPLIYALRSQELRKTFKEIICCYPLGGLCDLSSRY

Description: Binding affinity to human MC4 receptor

The Ki is the equilibrium dissociation constant of an inhibitor or competing ligand from its target. A high value points to lower affinity. The compound `CNC(C)(C)C(=O)N[C@H](Cc1ccc(Cl)cc1Cl)C(=O)N1CCN(c2ccccc2C(=O)CC(C)C)CC1` showed a Ki of 91 nM.

With `CCC(O)(CC)c1ccccc1N1CCN(C(=O)[C@@H](Cc2ccc(Cl)cc2Cl)NC(=O)[C@@H](C)N)CC1`, the affinity, expressed as Ki, was 65 nM.

For `COc1ccccc1CC(O)c1ccccc1N1CCN(C(=O)[C@@H](Cc2ccc(Cl)cc2Cl)NC(=O)CCN)CC1` (stereo partly drawn), the affinity, expressed as Ki, was 66 nM.

As to `CCC(O)(CC)c1ccccc1N1CCN(C(=O)[C@@H](Cc2ccc(Cl)cc2Cl)NC(=O)CNC)CC1`, affinity was put at a Ki of 13 nM.

As for `COc1ccc(CCC(O)c2ccccc2N2CCN(C(=O)[C@@H](Cc3ccc(Cl)cc3Cl)NC(=O)CCN)CC2)cc1` (stereo partly drawn), affinity was put at a Ki of 23 nM.

As to `CC(C)CC(=O)c1ccccc1N1CCN(C(=O)[C@@H](Cc2ccc(Cl)cc2Cl)N(CC(C)C)CC(C)C)CC1`, the Ki was over 10000 nM.

For `NCCC(=O)N[C@H](Cc1ccc(Cl)cc1Cl)C(=O)N1CCN(c2ccccc2C(O)Cc2ccccc2)CC1` (stereo partly drawn), affinity was put at a Ki of 54 nM.

On to `CC(C)CC(O)c1ccccc1N1CCN(C(=O)[C@@H](Cc2ccc(Cl)cc2Cl)NC(=O)C2CCCNC2)CC1` (stereo partly drawn), for which the Ki was 49 nM.

For `CC(C)CC(=O)c1ccccc1N1CCN(C(=O)[C@@H](Cc2ccc(Cl)cc2Cl)NC(=O)C(C)(C)N)CC1`, the Ki amounted to 110 nM.

As to `CCC(O)(CC)c1ccccc1N1CCN(C(=O)[C@@H](Cc2ccc(Cl)cc2Cl)NC(=O)NC2CC2)CC1`, the Ki was determined as 42 nM.

Compound `CC(C)CC(O)c1ccccc1N1CCN(C(=O)[C@@H](Cc2ccc(Cl)cc2Cl)NC(=O)CN)CC1` (stereo partly drawn) gave a Ki of 13 nM.

On to `CC(C)CC(O)c1ccccc1N1CCN(C(=O)[C@@H](Cc2ccc(Cl)cc2Cl)NC(=O)[C@H](C)N)CC1` (stereo partly drawn), for which affinity was put at a Ki of 16 nM.

As for `CC(C)CC(N)c1ccccc1N1CCN(C(=O)[C@@H](Cc2ccc(Cl)cc2Cl)NC(C)C)CC1` (stereo partly drawn), the Ki was determined as 53 nM.

In turn, `NCCC(=O)N[C@H](Cc1ccc(Cl)cc1Cl)C(=O)N1CCN(c2ccccc2C(O)CCc2ccccc2)CC1` (stereo partly drawn) gave a Ki of 32 nM.

`CCCC(C)(O)c1ccccc1N1CCN(C(=O)[C@@H](Cc2ccc(Cl)cc2Cl)NC(=O)CCN)CC1` (stereo partly drawn): affinity was put at a Ki of 11 nM.

`CC(C)CC(N)c1ccccc1N1CCN(C(=O)[C@@H](Cc2ccc(Cl)cc2Cl)NCC2CCOC2)CC1` (stereo partly drawn) yielded a Ki of 15 nM.

Turning to `CC(C)C[C@@H](O)c1ccccc1N1CCN(C(=O)[C@@H](Cc2ccc(Cl)cc2Cl)NC(=O)CN)CC1`, affinity was put at a Ki of 9 nM.

As to `CC(C)CC(N)c1ccccc1N1CCN(C(=O)[C@@H](Cc2ccc(Cl)cc2Cl)NC(=O)[C@H](C)N)CC1` (stereo partly drawn), the Ki was found to be 4.2 nM.

As for `CC(C)CC(=O)c1ccccc1N1CCN(C(=O)[C@@H](Cc2ccc(Cl)cc2Cl)NC(=O)[C@H](C)N)CC1`, affinity was put at a Ki of 26 nM.

With `CSCCCN[C@H](Cc1ccc(Cl)cc1Cl)C(=O)N1CCN(c2ccccc2C(=O)CC(C)C)CC1`, the Ki was found to be 230 nM.

`CCCCN(CCCC)[C@H](Cc1ccc(Cl)cc1Cl)C(=O)N1CCN(c2ccccc2C(O)CC(C)C)CC1` (stereo partly drawn) showed a Ki of 1400 nM.

With `CCOC(=O)[C@H]1CCCC[C@@H]1N1CCN(C(=O)[C@@H](Cc2ccc(Cl)cc2Cl)NC(=O)CCN)CC1`, the affinity, expressed as Ki, was 6.3 nM.

`CCC(O)(CC)c1ccccc1N1CCN(C(=O)[C@@H](Cc2ccc(Cl)cc2Cl)NC(=O)OC(C)(C)C)CC1` gave a Ki of 390 nM.

The compound `CC(C)CC(=O)c1ccccc1N1CCN(C(=O)[C@@H](Cc2ccc(Cl)cc2Cl)NCC2CCOC2)CC1` (stereo partly drawn) gave a Ki of 150 nM.

Compound `CSCCCN[C@H](Cc1ccc(Cl)cc1Cl)C(=O)N1CCN(c2ccccc2C(O)CC(C)C)CC1` (stereo partly drawn) had a Ki of 330 nM.

In turn, `CC(C)CC(=O)c1ccccc1N1CCN(C(=O)[C@@H](Cc2ccc(Cl)cc2Cl)NC(C)C)CC1` gave a Ki of 560 nM.

The compound `CC(C)CC(O)c1ccccc1N1CCN(C(=O)[C@@H](Cc2ccc(Cl)cc2Cl)N(CC2CC2)CC2CC2)CC1` (stereo partly drawn) had a Ki of over 10000 nM.

Consider `CCCCCN(CCCCC)[C@H](Cc1ccc(Cl)cc1Cl)C(=O)N1CCN(c2ccccc2C(=O)CC(C)C)CC1`, for which the Ki is 5800 nM.

Turning to `CC(C)CC(N)c1ccccc1N1CCN(C(=O)[C@@H](Cc2ccc(Cl)cc2Cl)N(Cc2ccccn2)Cc2ccccn2)CC1` (stereo partly drawn), the Ki amounted to 2 nM.

`CC(C)CC(N)c1ccccc1N1CCN(C(=O)[C@@H](Cc2ccc(Cl)cc2Cl)NC(=O)CN)CC1` (stereo partly drawn) displayed a Ki of 2 nM.

Take `NCCC(=O)N[C@H](Cc1ccc(Cl)cc1Cl)C(=O)N1CCN(c2ccccc2CO)CC1`: the affinity, expressed as Ki, was 870 nM.

For the compound `CC(C)CC(O)c1ccccc1N1CCN(C(=O)[C@@H](Cc2ccc(Cl)cc2Cl)NC(=O)C(C)(C)N)CC1` (stereo partly drawn), the Ki was found to be 46 nM.

`CCC(O)(CC)c1ccccc1N1CCN(C(=O)[C@@H](Cc2ccc(Cl)cc2Cl)NC(=O)C(C)(C)N)CC1` showed a Ki of 38 nM.

The compound `CCC(C)C(O)c1ccccc1N1CCN(C(=O)[C@@H](Cc2ccc(Cl)cc2Cl)NC(=O)CCN)CC1` (stereo partly drawn) had a Ki of 47 nM.

`CNC(C)(C)C(=O)N[C@H](Cc1ccc(Cl)cc1Cl)C(=O)N1CCN(c2ccccc2C(O)CC(C)C)CC1` (stereo partly drawn): the Ki stood at 21 nM.

With `CCCCCN(CCCCC)[C@H](Cc1ccc(Cl)cc1Cl)C(=O)N1CCN(c2ccccc2C(N)CC(C)C)CC1` (stereo partly drawn), the Ki amounted to 350 nM.

On to `CC(C)CC(N)c1ccccc1N1CCN(C(=O)[C@@H](Cc2ccc(Cl)cc2Cl)N(CC(C)C)CC(C)C)CC1` (stereo partly drawn), for which affinity was put at a Ki of 1200 nM.

`CC(C)CC(N)c1ccccc1N1CCN(C(=O)[C@@H](Cc2ccc(Cl)cc2Cl)N(CC2CC2)CC2CC2)CC1` (stereo partly drawn) yielded a Ki of 350 nM.

`CC(C)CC(O)c1ccccc1N1CCN(C(=O)[C@@H](Cc2ccc(Cl)cc2Cl)NCC2CCOC2)CC1` (stereo partly drawn) yielded a Ki of 89 nM.

In turn, `CCCCN(CCCC)[C@H](Cc1ccc(Cl)cc1Cl)C(=O)N1CCN(c2ccccc2C(N)CC(C)C)CC1` (stereo partly drawn) yielded a Ki of 120 nM.

Compound `CCC(O)(CC)c1ccccc1N1CCN(C(=O)[C@@H](Cc2ccc(Cl)cc2Cl)NC(=O)CN)CC1` had a Ki of 26 nM.

`CC(C)C(O)c1ccccc1N1CCN(C(=O)[C@@H](Cc2ccc(Cl)cc2Cl)NC(=O)CCN)CC1` (stereo partly drawn) came in with a Ki of 110 nM.

With `C=CC(C)C(O)c1ccccc1N1CCN(C(=O)[C@@H](Cc2ccc(Cl)cc2Cl)NC(=O)CCN)CC1` (stereo partly drawn), the Ki was 29 nM.

With `CC(C)CC(O)c1ccccc1N1CCN(C(=O)[C@@H](Cc2ccc(Cl)cc2Cl)N(CC(C)C)CC(C)C)CC1` (stereo partly drawn), the Ki was over 10000 nM.

Compound `CC(C)CC(=O)c1ccccc1N1CCN(C(=O)[C@@H](Cc2ccc(Cl)cc2Cl)N(Cc2ccccn2)Cc2ccccn2)CC1` gave a Ki of 110 nM.

On to `CC(C)CC(O)c1ccccc1N1CCN(C(=O)[C@@H](Cc2ccc(Cl)cc2Cl)NC(C)C)CC1` (stereo partly drawn), for which the Ki came to 380 nM.

On to `CC(C)CC(N)c1ccccc1N1CCN(C(=O)[C@@H](Cc2ccc(Cl)cc2Cl)NC(=O)C(C)(C)N)CC1` (stereo partly drawn), for which affinity was put at a Ki of 7.7 nM.

Consider `COc1cccc(CC(O)c2ccccc2N2CCN(C(=O)[C@@H](Cc3ccc(Cl)cc3Cl)NC(=O)CCN)CC2)c1` (stereo partly drawn), for which the affinity, expressed as Ki, was 66 nM.

`CCCC(O)c1ccccc1N1CCN(C(=O)[C@@H](Cc2ccc(Cl)cc2Cl)NC(=O)CCN)CC1` (stereo partly drawn): the Ki came to 26 nM.

On to `CCC(O)(CC)c1ccccc1N1CCN(C(=O)[C@@H](Cc2ccc(Cl)cc2Cl)NC(=O)N2CCCC2=O)CC1`, for which the affinity, expressed as Ki, was 110 nM.

Consider `CCCCCN(CCCCC)[C@H](Cc1ccc(Cl)cc1Cl)C(=O)N1CCN(c2ccccc2C(O)CC(C)C)CC1` (stereo partly drawn), for which the Ki stood at 3200 nM.

`CC(C)CC(=O)c1ccccc1N1CCN(C(=O)[C@@H](Cc2ccc(Cl)cc2Cl)N(CC2CC2)CC2CC2)CC1` returned an inhibition constant (Ki) of over 10000 nM.

On to `CSCCCN[C@H](Cc1ccc(Cl)cc1Cl)C(=O)N1CCN(c2ccccc2C(N)CC(C)C)CC1` (stereo partly drawn), for which the Ki was 21 nM.
